Reference: paper PMC6979384, “Characterization of the plant homeodomain (PHD) reader family for their histone tail interactions” (Epigenetics & Chromatin, 2020)

Columns and labels:
AIRE (PP) = assay: PHD finger domain microarray; type: binding, human
From the text: (§1) To define the histone binding preferences of the PHD finger proteome, we expressed and purified 123 annotated human PHD-containing domains as GST-tagged recombinant fusions from E. coli. The recombinant proteins consisted of either PHD fingers in isolation, or as tandem domains if a given PHD finger was located adjacent to another reader domain (e.g., one or more PHD fingers, Tudor, chromo and/or bromodomains) (Additional file 1: Table S1). These GST fusions were printed in duplicate on nitrocellulose-coated microarray slides and probed with biotinylated peptides that represented the N-termini of H3, H4, H2A or H2B (Fig. 1a and Additional file 2: Figure S1). As the majority of PHD readers thus far characterized are H3K4me0/3 readers, we included additional peptides (H3K4 as either mono-, di-, or trimethylated) to further determine any H3K4 methyl preference (Additional file 2: Figure S2 and Fig. 1b). As a control, we also probed these microarrays with an α-Tubulin peptide (a.a. 30–50) that would not be predicted to interact with PHD fingers (Additional file 2: Figure S1). […] We also cannot exclude the possibility that some PHD fingers might not be functionally active on the microarrays (perhaps due to misfolding or the lack of an important adjacent region).
(§2) The protein domain microarray was designed to include 123 GST-tagged PHD-domain containing recombinant proteins. Protein domain microarray development and probing was as previously. Briefly, recombinant proteins were synthesized and cloned into pGEX-4T-1 vector by Biomatik Corporation. These GST-PHD readers were subsequently expressed, purified, and spotted in duplicate onto nitrocellulose-coated glass slides (Oncyte Avid slides, Grace Bio-Labs) using a pin arrayer (Aushon 2470, Aushon). For probing, microarray slides were blocked with 3% milk, 3% bovine serum albumin, 0.1% Tween 20 in PBS. Biotinylated peptides were pre-labeled with streptavidin-Cy3 fluorophore (GE Healthcare) and incubated with the blocked array slides. Slides were then washed with PBST and allowed to air dry. Fluorescent interactions were visualized using a GenePix 4200A Microarray Scanner (Molecular Devices).

KDM5A (PHD1) = assay: PHD finger domain microarray; type: binding, human
From the text: as §1, §2

KDM5B (PHD1) = assay: PHD finger domain microarray; type: binding, human
From the text: as §1, §2

PHF21A = assay: PHD finger domain microarray; type: binding, human
From the text: as §1, §2

TRIM66 (PB) [1] = assay: PHD finger domain microarray; type: binding, human
From the text: as §1, §2

KDM5A (PHD3) = assay: PHD finger domain microarray; type: binding, human
From the text: as §1, §2

KDM5B (PHD3) = settings: cited from earlier work
From the text: While findings between the domain microarrays and peptide microarrays largely agreed, there were some interesting differences. […] It should be noted that the comparison made here is between the H3K4me3 + K9ac + K18ac and the H3K4me0 + K9ac + K18ac peptides. Due to the limited binding, if any, ...

CHD4 (PPCC) = assay: dCypher AlphaScreen Phase A (reader titration); type: binding, human; settings: 100 nM peptide, 23 °C, n = 2
Procedure: (§3) Fig. 3 dCypher histone peptide-binding assays define the PTM recognition preference of PHD proteins with high sensitivity. a–h Binding curves to determine optimal reader protein concentration for full peptide library screening on the dCypher® AlphaScreen® platform (see “Methods”). X-axes are log(protein concentration (M)) at constant peptide concentration (100 nM); Y-axes are AlphaScreen counts, representing relative strength of binding (n = 2; error bars are S.D.). i Heat map represents relative binding to H3 N-terminal peptides (left) by PHD-containing GST-tagged proteins (top) using the dCypher AlphaScreen platform. Protein concentrations can be found in Additional file 5: Table S4. Binding strength is indicated by color gradient from green to yellow (stronger to weaker). The asterisk (*) by MLL5 signifies its general preference for H3K4 methylation. Alpha counts (n = 2) were normalized individually for each protein to the highest signal for each respective assay. For full dCypher peptide screen data, see Additional file 4: Table S3
(§4) We next employed a highly sensitive proximity-based AlphaScreen histone peptide assay (dCypher®) to provide a third and orthogonal approach to analyzing the histone binding preferences for a subset of the 31 PHD proteins with respect to various histone tail PTMs. In this assay, biotinylated peptides are bound to streptavidin “donor” beads and the GST-tagged reader domains bound to Glutathione “acceptor” beads. […] Initial binding assays were conducted for each fusion protein using three peptides [H3 (1–20) with K4me0, H3K4me3 or H3K9me3] to determine the optimal reader domain concentration for full peptide library studies (Fig. 3a–h; Additional file 4: Table S3 and Additional file 5: Table S4). […]
(§5) The dCypher peptide screen assay was performed as previously described. […] Plates were incubated at 23 °C in subdued lighting for 60 min and AlphaLISA signal measured on a PerkinElmer 2104 EnVision (680 nm laser excitation, 570 nm emission filter ± 50 nm bandwidth). […]

PHRF1 (RP) = assay: dCypher AlphaScreen Phase A (reader titration); type: binding, human; settings: 100 nM peptide, 23 °C, n = 2
Procedure: as §3, §4, §5

TRIM66 (PB) [2] = assay: dCypher AlphaScreen Phase A (reader titration); type: binding, human; settings: 100 nM peptide, 23 °C, n = 2
Procedure: as §3, §4, §5

For “H3 (1-20): unmodified H3 N-terminal peptide (1–20)”, the binding preference (AIRE (PP)) was “preference for the unmethylated H3K4 state”, the binding preference (KDM5A (PHD1)) was “preference for the unmethylated H3K4 state” and the binding preference (KDM5B (PHD1)) was “preference for the unmethylated H3K4 state”. For the same substance, the binding preference (PHF21A) was “preference for the unmethylated H3K4 state”, the binding preference (TRIM66 (PB) [1]; listed as unmethylated H3K4) was “preference for the unmethylated H3K4 state” and the binding preference (TRIM66 (PB) [1]; listed as unmodified H3 tail) was “readers of the unmodified H3 tail”.

In the case of H3K4me3: H3 1-20 [Peptide H3K4me3], the binding preference (KDM5A (PHD3)) is given as “consistent with their current classification as H3K4me3 binders” and the reported binding (KDM5B (PHD3)) is given as “reported to bind H3K4me3”.

In the case of H3K9me3: H3 1-20 [Peptide H3K9me3], the “relative binding over a range of protein concentration” value (CHD4 (PPCC)) is reported as “stronger interaction with H3K9me3 compared with the unmodified peptide”, the “binding preference at low versus high protein concentrations” value (PHRF1 (RP)) is reported as “distinct binding preference for the H3K9me3 peptide over the H3K4me0 peptide” and the “relative binding over a range of protein concentration” value (TRIM66 (PB) [2]) is reported as “stronger interaction with H3K9me3 compared with the unmodified peptide”.
